Data as given in US20250312349A1, “COMPOSITION AND METHODS OF TREATING INTRACELLULAR PATHOGEN INFECTION” (UNIVERSITY HOSPITALS CLEVELAND MEDICAL CENTER, priority 2024, published 2025).

Test system: T. gondii
Test: In vitro infection of mammalian cells with T. gondii tachyzoites, counted by light microscopy
Type: cell-based, Toxoplasma gondii
Procedure: Chinese Hamster Ovary (CHO; a gift from Cathleen Carlin, Case Western Reserve University), human retinal pigment epithelial (RPE) cells (ARPE-19; American Type Culture Collection, ATCC, Manassas, VA), and mouse endothelial […]) transduced with Src shRNA or control encoding lentiviral vectors were cultured in complete media. Mouse brain endothelial cells expressing WT or DN EGFR were isolated as described. Endothelial cells were cultured in medium containing Endothelial Cell Growth Supplement (ECGS; Sigma-Aldrich, St Louis, MO). Mammalian cells were infected with tachyzoites of the RH or PTG stains of T. gondii; RH strain was used unless otherwise indicated. Cells were fixed at 2 hours or 24 hours followed by staining using Hema 3 Manual Staining System (Fisherbrand, Hampton, NH). At least 100 to 200 cells per monolayer were counted by examining a minimum of 5 random areas per monolayer. The percentage of infected cells, tachyzoites and vacuoles per 100 cells, and tachyzoites per vacuole were counted using light microscopy. Three independent experiments were performed. Saracatinib, Gefitinib (LC Laboratories, Woburn, MA) and lysosomal inhibitors leupeptin and pepstatin (10 μM; Millipore Sigma, Burlington, MA) were used in specified experiments. Each cell monolayer was generated and infected independently.

[1] = CHO cells transfected with CA Akt, 1 μM, 24 h
[2] = CHO cells transfected with WT Akt, 1 μM, 24 h
[3] = EGFR+ CHO cells, RH T. gondii, indicated concentrations, 24 h

In the case of `CN1CCN(CCOc2cc(OC3CCOCC3)c3c(Nc4c(Cl)ccc5c4OCO5)ncnc3c2)CC1` [Saracatinib, N-(5-chloro-1,3-benzodioxol-4-yl)-7-(2-(4-methylpiperazin-1-yl)ethoxy)-5-(tetrahydro-2H-pyran-4-yloxy)quinazolin-4-amine], the toxoplasmacidal activity (0.3 μM) is reported as “significantly reduced”, the toxoplasmacidal activity (1 μM, infected host cells) is reported as “kills T. gondii” and the toxoplasmacidal activity (CHO cells infected with type I (RH) or Type II (PTG) strains, 1 μM, 2 h and 24 h) is reported as “toxoplasmacidal activity”. The “effects on infected cells and tachyzoites per 100 cells compared with Gefitinib” value (CHO cells stably transfected to express EGFR, 24 h) was “more striking than the effects of Gefitinib”, the “number of tachyzoites per 100 cells” value [1] was “no reduction” and the percentage of infection [1] was “no reduction”. For the same compound, the “number of tachyzoites per 100 cells” value [2] was “reduced”, the “percentage of infected cells” value [2] was “reduced” and the “parasite replication (tachyzoites per vacuole)” value (CHO cells, 1 μM, 24 hours) was “did not affect”. For the same compound, the “killing of T. gondii in cells made deficient in PTEN” value (CHO cells, PTEN siRNA, 24 h) was “no longer able to kill T. gondii”, the “percentage of infected cells” value [3] was “dose-dependent significant decrease” and the “tachyzoites per 100 cells” value [3] was “dose-dependent significant decrease”. The “anti-T. gondii activity in ULK1-deficient cells” value (ULK1 siRNA, CHO and brain endothelial cells, 24 h) was “unable to exhibit anti-T. gondii activity”, the “anti-T. gondii activity in presence of Leupeptin and Pepstatin A” value (lysosomal inhibitors 10 μM added post-infection) was “ablated” and the “toxoplasmacidal activity in cells made deficient in Src” value (mHEVc cells transduced with Src shRNA, 1 μM) was “no toxoplasmacidal activity was detected”.
